Columns and labels:
Ras = target: T1, Ras (Homo sapiens, UniProt P01112, G12V); assay: Proliferation assay (MTS) dose-response, Ras test cell line ("FHR V12"); assay type: cell-based; conditions: Ras test cell line "FHR V12" (Fig. 7)
T1 construct: expressed in transfected cells
Protocol: (§1) FDC-P1 Zellen (Dexter et al., 1980) wurden in IMDM Medium (BioWhittaker), versetzt mit 10% hitzeinaktiviertem fötalem Kälberserum (FCS), 2 mM Glutamin, 50 µM β-Mercaptoäthanol und 1% IL-3 angesetzt und bei 37°C in 5% CO2 inkubiert. 10^7 Zellen pro Transfektion wurden 5 min bei 1200 UpM bei Raumtemperatur abzentrifugiert (Heraeus Minifuge), einmal mit serumfreiem RPMI-1640 Medium gewaschen, und in 1 ml serumfreiem Medium suspendiert. 800 µl dieser Zellsuspension wurden in einer Elektroporationsküvette mit 20 µg Plasmid pGDV12ras gemischt und mit einem einzelnen Stromstoß von 280 V, 980 µF und 1000 ms elektroporiert (Progenetor II, Hoefer Instruments). Die Zellen wurden in 10 ml Kulturmedium mit 1% IL-3 verdünnt und bei 37°C, 5% CO2 inkubiert. Zwei Tage nach der Transfektion wurden die Zellen mit frischem Medium 3-fach verdünnt und 250 µg/ml G-418 zur Selektion auf Neomycin-resistenz zugesetzt. An den darauffolgenden Tagen wurde die G-418 Konzentration auf 500, 750 und 1000 µg/ml erhöht. Tote Zellen wurden mittels Zentrifugation durch einen Ficoll-Gradienten entfernt. Dazu wurden die Zellen zuerst mittels Zentrifugation (5 min, 1200 UpM) in einem geringen Volumen aufkonzentriert und in einem Zentrifugenröhrchen über Ficoll-Paque (Pharmacia) geschichtet. […]

HER-2 = target: T2, HER-2 (Homo sapiens, UniProt P04626, V659E); assay: Proliferation assay (MTS) dose-response, HER-2 test cell line; assay type: cell-based; conditions: HER-2 test cell line (Fig. 7)
T2 construct: enthält nun die komplette kodierende Region der mutierten, konstitutiv aktiven Form HER2(V659E); expressed in transfected cells
Protocol: FDC-P1-Zellen (Dexter et al., 1980), die IL-3-abhängig wachsen, wurden mit Plasmid pAHygCMVHer2(V659E) folgendermaßen transfiziert: Etwa 1x10^7 Zellen wurden in IMDM-Medium (Bio-Whittaker) mit 10 µg Plasmid DNA gemischt und mit einem Elektroporator (Hoefer, Progenetor II) bei 980 µF, 280 V für 1000 ms elektroporiert. Die Zellen wurden in IMDM-Medium in Anwesenheit von 10% hitzeinaktiviertem fötalem Kälberserum, 50 µM β-Mercaptoethanol, Standardantibiotika, und 1% IL-3 bei 37°C unter 5% CO2 gehalten und durch Zugabe von 300 mg/l Hygromycin B (Boehringer Mannheim) selektioniert. Nach erfolgreicher Selektion wurden die Zellen langsam von IL-3 entwöhnt, der IL-3-unabhängig wachsende Zellpool anschließend in Methocel subkloniert. Einzelne Klone wurden gepickt und in Medium ohne IL-3 hochgezogen.
Einzelne Klone wurden in einem Fluoreszenz-aktivierten Zell-Sorter (Becton-Dickinson, FACSort) auf Oberflächenexpression von HER2 getestet, dabei wurde als primärer Antikörper ein gegen die extrazelluläre Domäne von HER2 gerichteter Maus-Antikörper verwendet (Oncogene Science, c-neu (Ab-2)), und als sekundärer Antikörper ein Fluorescein Isothiocyanat (FITC)-konjugierter anti-Maus IgG Antikörper (Dianova, Hamburg). Der Subklon mit der besten Oberflächenexpression von HER2(V659E), genannt FDCP/Her2-C42#16, wurde für das Screenen verwendet. […]

HGF-R = assay: Proliferation assay (MTS) dose-response, HGF-R test cell line ("TPRmet"); assay type: cell-based, human; conditions: HGF-R test cell line "TPRmet" (Fig. 7)
EGF-Rezeptor = EGF-Rezeptor (Homo sapiens, UniProt P00533); assay: c-fos promoter luciferase reporter assay in KB-B4 cells, EGF-induced; assay type: cell-based; conditions: 1 ng/ml EGF, 6 h (Fig. 6)
Protocol: Die humane epidermoide Karzinomzellinie KB (ATCC CCL 17), wurde mit Plasmid pBHfosluci folgendermaßen transfiziert: Etwa 1x10^6 Zellen pro 10 cm Platte wurden in DMEM-Medium (Bio-Whittaker) in Anwesenheit von 10% hitzeinaktiviertem fötalem Kälberserum in mehrere Platten ausgesät. Am nächsten Tag wurde 20 µg Plasmid-DNA mit Calcium-Phosphat präzipitiert und das Präzipitat langsam auf die Zellen getropft. Nach 4 Stunden wurden die Zellen für 2 min in 15% Glycerin inkubiert, gewaschen und dann in DMEM-Medium in Anwesenheit von 10% hitzeinaktiviertem fötalem Kälberserum und Standardantibiotika bei 37°C unter 5% CO2 gehalten. Die Zellen wurden durch Zugabe von 0.5 g/l G418 (GIBCO BRL) selektioniert. Einzelne G418-resistente Zellklone wurden hochgezogen und auf Induzierbarkeit der Luciferaseexpression durch Zugabe von HGF (Sigma) getestet. Ungefähr 10000 Zellen jedes Klons wurden in 6facher Ausfertigung in 200 µl pro Vertiefung in einer lichtundurchlässigen, gewebekulturbeschichteten Mikrotiterplatte mit 96 Vertiefungen (Microlite™, Dynatech Laboratories) ausgesät und über Nacht bei 37°C inkubiert. Jeweils drei Ansätze wurden mit 20 ng/ml HGF behandelt und weitere 6 h inkubiert. Anschließend wurde das Medium entfernt und die Zellen zweimal mit PBS gewaschen. […]

H-ras^Val12 [1] = assay: Detection of inhibition of Ras farnesylation (immunoprecipitation, SDS gel, Western blot) in FHRV12cc21 cells; assay type: cell-based, mouse; conditions: 5 µM, 48 h, 1% IL-3
Protocol: Nachweis der H-ras^Val12 Expression FHRV12cc21 und untransfizierte FDC-P1 Zellen wurden in IMDM Medium mit 10% FCS und 1% IL-3 gezüchtet. Zum Nachweis der Hemmung der posttranslationalen Modifikation von H-ras^Val12 durch Farnesylierung wurden die Zellen für 48 Stunden mit 5 µM des Protein-Farnesyltransferase-Inhibitors L-739.749 (Kohl et al., 1994) inkubiert. Die Zellen wurden mit PBS gewaschen und in PBSTDS (1% Triton X-100, 0.5% Natriumdesoxycholat, 0.1% Natriumdodecylsulfat in PBS) 5 min bei 4°C lysiert. Die Zellysate wurden durch Zentrifugation (20 min 14.000x g, 4°C) geklärt. Ras Proteine wurden durch Zusatz von 1 µg monoklonalen Ratten Antikörper Y13-238 (Oncogene Science) und Protein-G Plus / Protein-A Agarose (Oncogene Science) über Nacht bei 4°C immunpräzipitiert. Die Präzipitate wurden zweimal mit PBSTDS Puffer gewaschen und anschließend in SDS-Probenpuffer mit 3% β-Mercaptoethanol ausgenommen. Die Proteine wurden in einem 20%igen SDS-Polyacrylamidgel aufgetrennt, auf eine Immobilon-Membran (Millipore) transferiert und nach Absättigen der Membran mit 10% FCS, 1% Rinderserumalbumin, 1% Tween-20 in PBS, durch aufeinanderfolgende Inkubation mit einem Ras^Val12 spezifischen monoklonalen Antikörper (pan-Ras^Val12, Oncogene Science) und einem sekundären anti-Maus-IgG - Alkalische Phosphatase-Konjugat durch Färbereaktion mit NBT und BCIP (Promega) nachgewiesen. […]

H-ras^Val12 [2] = assay: Inhibition of IL-3 independent growth of H-ras^Val12 transfected FDC-P1 cells (FHRV12cc21), viability by MTS assay; assay type: cell-based, mouse; conditions: IL-3 free medium, relative absorption (Fig. 1)
Protocol: as §1

H-ras^Val12 [3] = assay: Inhibition of IL-3 independent growth of H-ras^Val12 transfected FDC-P1 cells (FHRV12cc21), DNA synthesis by [3H]thymidine incorporation; assay type: cell-based, mouse; conditions: IL-3 free medium (Fig. 2)
Protocol: as §1

T1 sequence (P01112 1-186 G12V): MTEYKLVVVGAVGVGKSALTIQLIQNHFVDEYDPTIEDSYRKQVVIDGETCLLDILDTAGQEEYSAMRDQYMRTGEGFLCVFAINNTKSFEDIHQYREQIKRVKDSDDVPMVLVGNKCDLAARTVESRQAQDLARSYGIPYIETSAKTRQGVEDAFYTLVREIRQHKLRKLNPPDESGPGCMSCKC
T2 sequence (P04626 23-1255 V659E): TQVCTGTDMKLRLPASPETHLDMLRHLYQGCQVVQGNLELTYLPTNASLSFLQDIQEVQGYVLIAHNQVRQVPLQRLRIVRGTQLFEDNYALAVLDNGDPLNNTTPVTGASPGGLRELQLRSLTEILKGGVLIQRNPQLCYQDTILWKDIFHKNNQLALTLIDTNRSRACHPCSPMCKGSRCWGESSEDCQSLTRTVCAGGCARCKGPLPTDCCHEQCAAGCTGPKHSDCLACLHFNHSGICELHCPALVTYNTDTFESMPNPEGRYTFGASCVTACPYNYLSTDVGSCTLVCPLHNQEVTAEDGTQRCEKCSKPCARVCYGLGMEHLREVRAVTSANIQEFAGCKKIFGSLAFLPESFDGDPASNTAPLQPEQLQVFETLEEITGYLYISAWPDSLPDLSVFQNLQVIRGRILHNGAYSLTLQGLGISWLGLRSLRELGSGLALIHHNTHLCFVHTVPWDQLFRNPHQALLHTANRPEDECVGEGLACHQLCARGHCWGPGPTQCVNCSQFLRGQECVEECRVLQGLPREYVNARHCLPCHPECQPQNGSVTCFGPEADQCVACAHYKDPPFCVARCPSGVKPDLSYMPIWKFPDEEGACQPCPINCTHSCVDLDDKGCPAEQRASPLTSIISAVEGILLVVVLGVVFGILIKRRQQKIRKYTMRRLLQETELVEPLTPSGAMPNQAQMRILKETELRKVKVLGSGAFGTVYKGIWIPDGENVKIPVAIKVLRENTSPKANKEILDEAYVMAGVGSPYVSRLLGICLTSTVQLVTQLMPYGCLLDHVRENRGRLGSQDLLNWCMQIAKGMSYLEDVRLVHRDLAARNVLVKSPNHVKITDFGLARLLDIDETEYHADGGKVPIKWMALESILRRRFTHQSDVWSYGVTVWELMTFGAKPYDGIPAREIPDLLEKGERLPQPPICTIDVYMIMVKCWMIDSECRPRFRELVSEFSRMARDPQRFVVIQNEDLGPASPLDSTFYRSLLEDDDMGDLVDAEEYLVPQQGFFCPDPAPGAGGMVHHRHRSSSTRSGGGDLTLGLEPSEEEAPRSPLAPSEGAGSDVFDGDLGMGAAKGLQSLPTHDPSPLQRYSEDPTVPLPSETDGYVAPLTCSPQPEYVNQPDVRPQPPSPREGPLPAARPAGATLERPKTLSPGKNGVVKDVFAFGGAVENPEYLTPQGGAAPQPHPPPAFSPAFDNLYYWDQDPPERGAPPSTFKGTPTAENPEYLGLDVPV
Sequence of EGF-Rezeptor (P00533 25-1210): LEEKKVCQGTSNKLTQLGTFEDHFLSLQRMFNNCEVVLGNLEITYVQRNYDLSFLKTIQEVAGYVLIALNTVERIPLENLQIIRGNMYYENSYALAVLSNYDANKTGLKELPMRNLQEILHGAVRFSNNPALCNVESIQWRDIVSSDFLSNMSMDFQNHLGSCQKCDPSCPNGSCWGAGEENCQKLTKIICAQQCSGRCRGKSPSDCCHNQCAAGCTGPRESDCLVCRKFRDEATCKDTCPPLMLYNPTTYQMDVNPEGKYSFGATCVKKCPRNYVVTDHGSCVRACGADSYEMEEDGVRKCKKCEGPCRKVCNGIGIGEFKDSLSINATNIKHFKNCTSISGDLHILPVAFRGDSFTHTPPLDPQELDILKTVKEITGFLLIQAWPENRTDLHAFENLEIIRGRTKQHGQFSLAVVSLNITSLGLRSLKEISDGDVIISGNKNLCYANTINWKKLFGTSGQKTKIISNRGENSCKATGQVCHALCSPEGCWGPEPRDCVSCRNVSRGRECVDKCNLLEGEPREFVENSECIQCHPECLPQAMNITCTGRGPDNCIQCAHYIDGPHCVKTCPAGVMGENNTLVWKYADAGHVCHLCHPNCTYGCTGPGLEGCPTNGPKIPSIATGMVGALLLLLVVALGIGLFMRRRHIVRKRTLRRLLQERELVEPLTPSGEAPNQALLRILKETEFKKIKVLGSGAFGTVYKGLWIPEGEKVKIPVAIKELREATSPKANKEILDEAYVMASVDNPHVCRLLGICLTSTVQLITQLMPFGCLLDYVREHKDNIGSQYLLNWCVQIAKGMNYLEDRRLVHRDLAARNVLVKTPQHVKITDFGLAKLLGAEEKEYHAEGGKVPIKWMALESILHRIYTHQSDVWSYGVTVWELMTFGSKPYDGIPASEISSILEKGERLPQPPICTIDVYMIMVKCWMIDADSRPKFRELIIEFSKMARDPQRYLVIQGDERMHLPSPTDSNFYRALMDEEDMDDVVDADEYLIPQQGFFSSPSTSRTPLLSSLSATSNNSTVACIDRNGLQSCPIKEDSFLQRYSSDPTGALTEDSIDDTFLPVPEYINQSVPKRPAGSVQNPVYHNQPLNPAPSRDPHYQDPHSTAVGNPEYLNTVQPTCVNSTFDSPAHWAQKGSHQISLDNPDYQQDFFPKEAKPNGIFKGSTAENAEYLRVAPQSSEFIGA

In the case of `Clc1cccc(Nc2ncnc3cnc(NC4CC4)nc23)c1` [4-[(3-Chlorphenyl)amino]-6-(cyclopropylamino)-pyrimido-[5,4-d]pyrimidin], the “Konzentration, bei der Effekte auf die Proliferation der Zellen zu messen sind, relative to IC50 on the EGF-dependent cell line” value (Ras) was at least 100 fach, the “Konzentration, bei der Effekte auf die Proliferation der Zellen zu messen sind, relative to IC50 on the EGF-dependent cell line” value (HER-2) was at least 100 fach and the “Konzentration, bei der Effekte auf die Proliferation der Zellen zu messen sind, relative to IC50 on the EGF-dependent cell line” value (HGF-R) was at least 100 fach.
In the case of `COc1cc2ncnc(Nc3cccc(C)c3)c2cc1OC` [6,7-Dimethoxy-4-(3-methylphenylamino)chinazolin], the “Inhibierung der Luciferase-Induktion durch EGF” value (EGF-Rezeptor) was “inhibitorische Wirkung”.
In the case of `CC[C@H](C)[C@@H](CO[C@@H](Cc1ccccc1)C(=O)N[C@@H](CCS(C)(=O)=O)C(=O)OC)NC[C@@H](N)CS` [L-739.749, 2(S)-{2(S)-[2(R)-Amino-3-mercapto]propylamino-3(S)-methyl}pentyloxy-3-phenylpropionylmethioninsulfonmethyl ester], the “Ras-Protein in der unmodifizierten (nicht farnesylierten) Form” value (H-ras^Val12 [1]) was over 50%, the “Hemmung der H-ras^Val12 abhängigen Proliferation (Viabilität)” value (H-ras^Val12 [2]) was “Hemmung der H-ras^Val12 abhängigen Proliferation (Viabilität)” and the “Hemmung der H-ras^Val12 abhängigen Proliferation (DNA-Synthese)” value (H-ras^Val12 [3]) was “Hemmung der H-ras^Val12 abhängigen Proliferation (DNA-Synthese)”.
